Laboratory results from patent US9079970B2, “Methods and compositions for specific modulation of MCL-1” (Dana Farber Cancer Institute, Inc., priority 2008, dated 2015).
Entries after “also recorded” stand apart in the source; their conditions may differ. Where a SMILES comes first, the peptide text is derived from it. Bridges are numbered along the chain shown (N, C = ends). [ ]: non-standard residue; d: D form. S5 = C=CCCC[C@](C)(N)C(=O)O

Assays:
Mcl-1 ΔNΔC [1] = biological target: T1, Mcl-1 ΔNΔC (Homo sapiens, UniProt Q07820); experiment: Fluorescence polarization direct binding of FITC-SAHBs to MCL-1ΔNΔC; conditions: FPA
T1 construct: GST (N, cleaved yes); made in house; host or cells: Escherichia coli BL21 (DE3), pGEX-4T
T1 sequence (Q07820 172-327, stated change not applied): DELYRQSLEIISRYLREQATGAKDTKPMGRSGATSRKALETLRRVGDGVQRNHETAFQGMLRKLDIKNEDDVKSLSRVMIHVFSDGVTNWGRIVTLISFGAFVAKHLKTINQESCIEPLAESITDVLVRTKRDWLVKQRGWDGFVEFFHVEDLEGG
Description: (§1) Binding assays were performed as previously described (Pitter et al., Methods Enzymol 446, 387 (2008). Briefly, FITC-SAHB (50 nM) was added to serial dilutions of FPLC-purified recombinant protein in binding buffer (50 mM Tris, 100 mM NaCl, pH 8.0). For competition assays, serial dilutions of acetylated MCL-1 SAHBs were mixed with FITC-BAK SAHB (25 nM), followed by addition of MCL-1ΔNΔC (100 nM) diluted in binding buffer (50 mM Tris, 100 mM NaCl, pH 8.0). Multiwell plates were incubated in the dark at room temperature until equilibrium was reached and fluorescence polarization (mP units) was measured by microplate reader (SpectraMax, Molecular Devices). For direct binding experiments, dissociation constants (KD) were calculated by nonlinear regression analysis of dose-response curves using Prism software (Graphpad). For competition experiments, Ki values were determined by nonlinear regression analysis of dose-response curves using a one-site competition model.
To measure the binding activity of SAHBs for MCL-1, fluorescence polarization binding assays were performed (FIG. 8). […] Fluorescence polarization was measured on a BMG POLARstar Optima or Spectramax and dissociation constants determined by nonlinear regression analysis using Prism software 4.0 (Graphpad) (FIG. 8). […]

recombinant BCL-XLΔC = recombinant BCL-XLΔC (Homo sapiens, UniProt Q07817); experiment: Fluorescence polarization direct binding of FITC-SAHBs to BCL-XLΔC; conditions: FPA
Chain of recombinant BCL-XLΔC (Q07817 1-209, stated change not applied): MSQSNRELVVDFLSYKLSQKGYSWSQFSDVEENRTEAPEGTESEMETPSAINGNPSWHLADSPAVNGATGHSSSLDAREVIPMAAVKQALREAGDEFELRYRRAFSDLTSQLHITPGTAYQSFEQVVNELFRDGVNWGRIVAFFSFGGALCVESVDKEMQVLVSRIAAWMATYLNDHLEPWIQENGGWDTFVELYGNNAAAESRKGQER
Description: as §1
(§2) Recombinant carboxy-terminal deleted anti-apoptotic proteins were expressed using the pGEX-4T vector, and purified as described for rMCL-1. The purified proteins were incubated with FITC-SAHBs, and binding affinities were analyzed by fluorescence polarization assay as described above. […] Optionally, design and optimization of tailored SAHB compounds for anti-apoptotic targeting also employed computational modeling.

recombinant BFL-1/A1ΔC = experiment: Fluorescence polarization direct binding of FITC-SAHBs to BFL-1/A1ΔC; conditions: FPA
Description: as §1
(§3) Compounds that bound MCL-1 with high affinity were analyzed for MCL-1 selectivity by measuring SAHB affinities for recombinant BCL-XLΔC, BCL-WΔC and BFL-1/A1ΔC (FIG. 8B). […] The purified proteins were incubated with FITC-SAHBs, and binding affinities were analyzed by fluorescence polarization assay as described above. […]

recombinant BCL-wΔC = experiment: Fluorescence polarization direct binding of FITC-SAHBs to BCL-wΔC; conditions: FPA
Description: as §1, §3

[2] = system: MCL-1ΔNΔC, BCL-2ΔC, BCL-XLΔC, BCL-wΔC and BFL-1/A1ΔC; experiment: FPA selectivity across panel of anti-apoptotic proteins; type: binding; conditions: FPA against anti-apoptotic panel
Description: as §1
as §2, with “Compounds that bound MCL-1 with high affinity were analyzed for MCL-1 selectivity by measuring SAHB affinities for recombinant BCL-XLΔC, BCL-WΔC and BFL-1/A1ΔC (FIG. 8B). Recombinant” for “Recombinant”
After the experiments set forth above, further members of the library of stabilized alpha-helices of BCL-2 domains (SAHBs) modeled after the BH3 domains of BCL-2 family proteins were generated in order to identify potent and selective inhibitors of MCL-1. The native alpha-helical structure of BH3 domains was reinforced by incorporating non-natural amino acids containing olefin tethers at the (i, i+4) positions of the non-interacting face, followed by ruthenium catalyzed olefin metathesis to yield a panel of stapled BH3 domains (FIG. 7). Fluorescence polarization assays (FPA) were performed to measure the binding affinity of fluorescently labeled SAHBs for recombinant human MCL-1ΔNΔC (amino acids 172-320), a deletion construct that contains the BH3-binding pocket and affords enhanced expression, purity, and stability. […] To identify MCL-1-selective SAHBs, we first screened for recombinant BCL-XLΔC binding, which eliminated PUMA, BID, BIM, BOK, BAX, and BAK SAHBs and then for recombinant BFL1/A1ΔC binding, which eliminated NOXA SAHB.

[3] = biological target: T2, MCL-1/BAK interaction in U937 AML cells (Homo sapiens, UniProt Q07820); experiment: MCL-1 immunoprecipitation / BAK western in U937 cells; type: cell-based; conditions: MCL-1 co-immunoprecipitation
T2 construct: MCL-1 over-expressing cancer cells, such as OPM2 multiple myeloma and U937 AML cells; endogenous in cells; host or cells: U937 AML cells
T2 sequence (Q07820 whole entry): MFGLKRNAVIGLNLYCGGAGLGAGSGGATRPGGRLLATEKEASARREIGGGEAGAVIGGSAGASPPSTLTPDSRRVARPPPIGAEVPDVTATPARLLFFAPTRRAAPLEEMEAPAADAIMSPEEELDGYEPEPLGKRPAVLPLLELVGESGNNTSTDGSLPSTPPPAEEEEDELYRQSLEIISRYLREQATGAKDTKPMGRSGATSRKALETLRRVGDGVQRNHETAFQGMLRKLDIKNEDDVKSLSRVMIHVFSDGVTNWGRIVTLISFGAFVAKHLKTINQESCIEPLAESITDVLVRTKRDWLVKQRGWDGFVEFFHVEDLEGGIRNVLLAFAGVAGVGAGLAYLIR
Description: After cellular lysis in 50 mM Tris (pH 7.4), 150 mM NaCl, 1 mM EDTA, 1% CHAPS and complete protease inhibitor pellet, cellular debris was pelleted at 14,000 g for 10 minutes at 4° C. The supernatant was incubated with pre-equilibrated protein A/G sepharose beads. The pre-cleared supernatant was treated with anti-MCL-1 antibody for 1.5 hours at 4° C. with rotation, followed by exposure to the protein A/G sepharose beads for 1 hour. The beads were pelleted and washed with lysis buffer for 10 minutes at 4° C. The washed beads were pelleted, heated to 90° C. for 10 minutes in SDS loading buffer, analyzed by SDS/PAGE, and immunoblotted for the known MCL-1 interactor, BAK. […] The SAHB-induced dissociation of MCL-1/BAK correlated with sensitization of U937 cells to apoptosis induction by a pro-apoptotic stimulus (see below).

U937 AML cells = experiment: Cell viability by MTT assay, U937; type: cell-based; conditions: combined with low-dose BIM SAHB
Description: A cell-based screen was used to evaluate the pro-apoptotic activity of MCL-1-targeting SAHBs in MCL-1-dependent hematologic cancer cell lines, including U937 (histiocytic lymphoma), Pfeiffer (diffuse large B-cell lymphoma), OCI-AML3 (acute myeloid leukemia), K562 (chronic myelogenous leukemia) and OPM-2 (multiple myeloma) cells.

Jurkat cells = experiment: Live confocal microscopy of cellular uptake and localization; type: cell-based; conditions: FITC-SAHB
Description: In addition to FACS-based analysis, live confocal microscopy was used to visualize cellular uptake and intracellular localization of MCL-1 targeting SAHBs. For live confocal microscopy, Jurkat cells were incubated with FITC-SAHB and live cell organelle markers (e.g., dextran to label pinosomes, Mitotracker to label mitochondria). At defined time points (e.g., 4, 8, 12, and 24 hours), cells were washed twice with PBS, resuspended in PBS, wet mounted and imaged by confocal microscopy. […] Cell permeability and intracellular targeting can also be optimized through site-directed mutagenesis; for example, converting negatively charged residues to neutral or positively charged residues (e.g. SEQ ID NO: 39) can enhance cellular uptake as was previously reported (Bernal et al JACS, 2007).

Mcl-1 ΔNΔC [4] = biological target: T1, Mcl-1 ΔNΔC; experiment: MCL-1 Specific Binders | Mcl-1 ΔNΔC
Description: Table printed on a drawing sheet, FIGURE 9 A
Head of the field: MCL-1 Specific Binders | Mcl-1 ΔNΔC
(A) illustrates a table of KD values for MCL-1-specific and pan-anti-apoptotic binding SAHBs.
First copying reader's note: KD values with their ± error in the same cell; each column is one anti-apoptotic target protein.
Where the first naming reader finds the target: head: Mcl-1 ΔNΔC

Compound | MCL-1ΔNΔC binding activity (Mcl-1 ΔNΔC [1]) | BCL-XL binding (recombinant BCL-XLΔC) | BFL-1/A1 binding (recombinant BFL-1/A1ΔC) | BCL-w binding (recombinant BCL-wΔC) | binding selectivity among anti-apoptotic proteins [2] | dissociation of MCL-1/BAK interaction in U937 cells [3] | sensitization of U937 cells to BIM SAHB (U937 AML cells) | cellular uptake and intracellular localization (Jurkat cells) | Kd (Mcl-1 ΔNΔC [4]) [nM]
CC(C)C[C@H](NC(=O)[C@H](C)NC(=O)[C@@H](N)CCCCN)C(=O)N[C@@H](CCC(=O)O)C(=O)N[C@H](C(=O)N[C@@H](CC(C)C)C(=O)N[C@@H](CCCNC(=N)N)C(=O)N[C@@]1(C)CCCC=CCCC[C@@](C)(C(=O)N[C@@H](Cc2ccccc2)C(=O)N[C@@H](CCC(N)=O)C(=O)N[C@@H](CCCNC(=N)N)C(=O)N[C@@H](CC(N)=O)C(=O)N[C@@H](Cc2c[nH]cn2)C(=O)N[C@@H](CCC(=O)O)C(=O)N[C@H](C(=O)N[C@@H](C)C(=O)N[C@@H](Cc2ccccc2)C(N)=O)[C@@H](C)O)NC(=O)[C@H](CC(=O)O)NC(=O)CNC(=O)[C@H](C(C)C)NC1=O)[C@@H](C)O [MCL-1 SAHBA V220F] | binds to both MCL-1 and BCL-XL | binds to both MCL-1 and BCL-XL | – | – | – | – | – | – | –
CC(C)C[C@H](NC(=O)[C@H](CCCCN)NC(=O)[C@H](CCC(N)=O)NC(=O)[C@H](CCCNC(=N)N)NC(=O)[C@H](Cc1ccccc1)NC(=O)[C@H](CC(N)=O)NC(=O)[C@H](CC(C)C)NC(=O)[C@]1(C)CCCC=CCCC[C@](C)(NC(=O)[C@H](CCCNC(=N)N)NC(=O)[C@H](CC(C)C)NC(=O)[C@H](CCC(N)=O)NC(=O)[C@@H](NC(=O)[C@H](C)NC(=O)[C@H](CO)NC(=O)[C@H](CCC(=O)O)NC(=O)[C@@H](NC(=O)[C@H](CCC(=O)O)NC(=O)[C@@H](N)CC(C)C)C(C)C)[C@@H](C)O)C(=O)N[C@@H](Cc2ccccc2)C(=O)NCC(=O)N[C@@H](CC(=O)O)C(=O)N1)C(N)=O [NOXA SAHB] (H-LEVESATQLR[S5]FGD[S5]LNFRQKL-NH2; staple 11-15; C-terminus assumed) | – | did not engage | eliminated; also recorded: did not engage | did not engage | striking selectivity for MCL-1ΔNΔC; also recorded: selective for MCL-1 | disrupts the MCL-1/BAK interaction | dose-responsively sensitizes chemoresistant U937 AML cells to low-dose, pro-apoptotic BIM SAHB | striking fluorescence of pinosomes at early time points and subsequent colocalization with Mitotracker | –
LEVESXTQLXRFGDKLNFRQKL [NOXA SAHBB] | – | – | – | – | – | – | – | – | 109 ± 32
